Reference: patent publication US12630520B2, “Left-handed bicyclic morpholine and salt thereof, preparation method therefor, pharmaceutical composition, and use” (Institute of Materia Medica, Chinese Academy of Medical …, priority 2019, dated 2026)
Several values for one entry are separate records, joined by “and”; a condition that tells them apart may be missing. Identical values can stand only once.

Tests used:
HepG2 cells [1] = assay: Toxicity to HepG2 cells (cell survival rate, 48 h); format: cell-based, human; conditions: HepG2, 10 μM, not significantly toxic
Description: The concentration was utilized to investigate the protective effects on APAP injured hepatocytes.
The concentration was utilized to investigate the protective effects on CCl4 injured hepatocytes.

HepG2 cells [2] = assay: Carbon tetrachloride (CCl4)-induced in vitro hepatocyte injury, MTT; format: cell-based, human; conditions: HepG2, 10 μM; for Cell survival rate increase (%): 0.6% CCl4, versus model group
Method: (§1) Human liver cancer HepG2 cells well retained the characteristics of normal human hepatocytes, and they were grown in a DMEM medium containing 10% of fetal calf cerium (containing 100 U/mL of penicillin and 100 μg/mL of streptomycin) at the culturing conditions: 37° C., 5% of CO2 and a saturated humidity. A solution containing 0.25% of trypsin and 0.02% of EDTA was used for digestions and passages.
A MTT method was adopted. The HepG2 cells were inoculated in a 96-well cell culture plate, and after 24 hour cultures, the (+)IMM-H014, the (−)IMM-H014 and the (±)IMM-H014 were added in a non-toxic concentration whilst the carbon tetrachloride (CCl4, a final concentration of 0.6%) was added thereto. A Bicyclol positive control group, a solvent control group and a model group were set for the experiment. They acted on the cells continuously for 24 h. The culture solution was discarded, and to each well, 100 μL of a MTT (0.5 mg/mL) solution was added to culture for 4 hours. The MTT solution was discarded, and to each well, 150 μL of DMSO was added. The mixture was oscillated by a mixing oscillator, and the absorbance value was measured at a wavelength of 570 nm in a microplate reader. Cell survival rate (%)=(OD mean of administration group/OD mean of solvent control group)×100%.
(§2) The data were presented as a number mean±standard deviation (x±SD).

HepG2 cells [3] = assay: 4-Acetamidophenol (APAP)-induced in vitro hepatocyte injury, MTT and LDH; format: cell-based, human; conditions: 8 mM APAP; for LDH level in the cell culture supernatant: HepG2, 10 uM, 24 h (the FIGURE); for Survival rates (%) / OD Mean ± SD / Cell survival rate increase (%): HepG2, 10 μM; for Survival rates (%) / OD Mean ± SD: 24 h, MTT; for OD Mean ± SD: 570 nm; for Cell survival rate increase (%): versus model group
Method: as §1, with “cell” for “cells”
A MTT method was adopted. The HepG2 cells were inoculated in a 96-well cell culture plate, and after 24 hour cultures, the (+)IMM-H014, the (−)IMM-H014 and the (±)IMM-H014 were added in a non-toxic concentration whilst the 4-acetamidophenol (APAP, a final concentration of 8 mM) was added thereto. A Bicyclol positive control group, a solvent control group and a model group were set for the experiment. The culture was continued for 24 h. 100 μL of the culture solution was taken and centrifuged, and a full-automatic biochemical analyzer in a LDH detection kit was utilized to detect the LDH level therein. The remaining culture solution was discarded, and to each well, 100 μL of a MTT (0.5 mg/mL) solution was added to continue the culture for 4 hours. The MTT solution was discarded, and to each well, 150 μL of DMSO was added. The mixture was oscillated by a mixing oscillator, and the absorbance value was measured at a wavelength of 570 nm in a microplate reader. Cell survival rate (%)=(OD mean of administration group/OD mean of solvent control group)×100%.
as §2

[4] = tested on: ConA-induced acute immune liver injuries; assay: ConA-induced mouse acute immune liver injury model; format: in vivo; conditions: mouse serum; for ALT (U/L) / AST (U/L) / LDH (U/L): 200 mg/kg intragastric once a day x3, 20 mg/kg ConA tail vein, n = 10; for ALT reduction percent (%) / AST reduction percent (%) / LDH reduction percent (%): 200 mg/kg, versus ConA model group
Method: 1. Method for Establishment of a ConA-Induced Mouse Acute Immune Liver Injury Model and Method of Administration SPF-grade male ICR mice (20-22 g), after acclimatization, were randomly divided into 5 groups: a blank control group, a ConA-induced model group, a 200 mg/kg (+)IMM-H014 group, a 200 mg/kg (−)IMM-H014 group, and a 200 mg/kg (±)IMM-H014 group, 10 mice in each group. Each administration group was intragastrically administrated once a day, and it was totally administrated three times. The blank control group and the model group were intragastrically administrated with the same dose of physiological saline. At 2 hours after the last administration, the mice in each group except the blank control group, were injected once with 20 mg/kg ConA in the tail vein, and each administration dose was 10 ml/kg. The mice were in fasting but not in water deprivation for 16 h and then the animals waited for further treatment. 2. Determination of Biochemical Indexes The mice were decapitated and blood was taken, and the blood samples were kept still at room temperature for 2 h and centrifuged at 4000 rpm for 10 min, to separate the serum. The ALT, AST and LDH contents in the serum were detected with a full-automatic biochemical analyzer. The data each were presented as a number mean±standard deviation (x±SD).

Row | Compound | cell survival rate (HepG2 cells [1]) | Survival rates (%) (HepG2 cells [2]; 0.6% CCl4, 24 h, MTT) | Cell survival rate increase (%) (HepG2 cells [2]) | LDH level in the cell culture supernatant (HepG2 cells [3]) | Survival rates (%) (HepG2 cells [3]) | OD Mean ± SD (HepG2 cells [3]) | Cell survival rate increase (%) (HepG2 cells [3]) | ALT (U/L) [4] | AST (U/L) [4] | LDH (U/L) [4] | ALT reduction percent (%) [4] | AST reduction percent (%) [4] | LDH reduction percent (%) [4] | OD Mean ± SD (HepG2 cells [2]; 0.6% CCl4, 24 h, MTT, 570 nm)
1 | COC(=O)c1cc(OC)c2c(c1-c1c(CN3CCOCC3)cc(OC)c3c1OCO3)OCO2 (racemic) [(±)IMM-H014] | 90% | 92.09% | 18.74% | could reduce the LDH levels | 50.63% | 0.453 ± 0.032 | 32.1% | 107.0 ± 108.7 U/L | 725.0 ± 417.3 U/L | 3466.7 ± 1772.4 U/L | 88.6% | 22.2% | 6.4% | –
2 | COC(=O)c1cc(OC)c2c(c1-c1c(CN3CCOCC3)cc(OC)c3c1OCO3)OCO2 [(−)IMM-H014] | 90% | 104.44% | 34.66% | could reduce the LDH levels | 67.01% | 0.600 ± 0.054^###& | 74.8% | 25.6 ± 17.4^###& U/L | 252.9 ± 233.5^##& U/L | 1690.0 ± 929.3^##& U/L | 97.3% | 72.9% | 54.4% | –
3 | COC(=O)c1cc(OC)c2c(c1-c1c(CN3CCOCC3)cc(OC)c3c1OCO3)OCO2 [(+)IMM-H014] | 90% | 87.32% | 12.59% | could reduce the LDH levels | 54.58% | 0.489 ± 0.098 | 41.4% and 42.4% | 44.4 ± 29.1 U/L | 514.3 ± 310.7 U/L | 2680.0 ± 1190.8 U/L | 95.3% | 44.8% | 27.6% | 0.799 ± 0.014
